Test results taken from patent US9975900B2, “Substituted imidazo[1,2-α]pyrazines for treating spinal muscular atrophy” (Hoffmann-La Roche Inc., priority 2014, dated 2018).
Structures can show the parent of a compound that is named as a salt.

Tests used:
[1] = system: SMN protein in SMA patient fibroblast cells (GM03813); experiment: SMN protein assay (HTRF) in cultured cells; assay type: cell-based; conditions: Homo sapiens, SMA Type 1 patient fibroblasts, 48 hours; for EC (1.5-fold): 7-point concentration curve, concentration giving 1.5 times SMN protein vs vehicle, read-out: EC1.5x SMN protein (EC1.5x concentration for SMN protein expression); for maximal fold induction: fold increase relative to vehicle control, read-out: Max. fold increase of SMN protein
How it was run: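 SMA patient fibroblasts (5,000 cells/well, DMEM-10% FBS) treated 48 h at 37 °C with 7-point, 3.16-fold dilutions, in triplicate. Lysates (RIPA) read overnight by HTRF with anti-SMN d2/cryptate at 665/620 nm. ΔF versus blank gives fold increase over vehicle, from which EC1.5× and maximum fold increase are derived.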

[2] = system: full length SMN2 minigene mRNA (HEK293H cells stably transfected with the SMN2-A minigene construct); experiment: RT-qPCR assay for SMN2 minigene pre-mRNA splicing in cultured cells; assay type: cell-based; conditions: Homo sapiens, HEK293-H, 24 hours, 7-point concentration curve, concentration giving 1.5-fold FL SMN2mini mRNA vs vehicle, read-out: EC1.5x minigene (EC1.5x concentration for production of full length SMN2 minigene mRNA)
How it was run: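 HEK293H cells stably carrying SMN2-A minigene were treated 24 h at 37 °C with a 7-point, 3.16-fold compound series, in duplicate. Minigene-specific exon 7–exon 8 mRNA measured by multiplex RT-qPCR with GAPDH normalisation; fold over vehicle by modified ΔΔCt, reported as EC1.5×.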

| Structure (SMILES) | EC (1.5-fold) [1] [µM] | maximal fold induction [1] | EC (1.5-fold) [2] [µM] |
| --- | --- | --- | --- |
| Cc1cn2cc(NC(=O)c3ccc(N4CCN[C@H](C)C4)cc3F)nc(C3CC3)c2n1 [Example 23, N-(8-cyclopropyl-2-methylimidazo[1,2-a]pyrazin-6-yl)-2-fluoro-4-[(3R)-3-methylpiperazin-1-yl]benzamide hydrochloride] | 0.0622 | 1.72 | 0.0268 |
| Cc1cn2cc(NC(=O)c3ccc(N4C[C@@H](C)N[C@@H](C)C4)cc3F)ncc2n1 [Example 27, 4-[(3S,5R)-3,5-dimethylpiperazin-1-yl]-2-fluoro-N-(2-methylimidazo[1,2-a]pyrazin-6-yl)benzamide] | 1.52 | 1.85 | 0.0167 |
| Cc1cn2cc(NC(=O)c3ccc(N4CCNC(C(C)C)C4)cc3F)ncc2n1 (stereo not drawn) [Example 45, 2-fluoro-N-(2-methylimidazo[1,2-a]pyrazin-6-yl)-4-(3-propan-2-ylpiperazin-1-yl)benzamide hydrochloride] | 0.264 | 1.76 | 0.106 |
| CCOc1cc(N2CCN3CCC[C@H]3C2)ccc1C(=O)Nc1cn2cc(C)nc2cn1 [Example 3, 4-[(8aS)-3,4,6,7,8,8a-hexahydro-1H-pyrrolo[1,2-a]pyrazin-2-yl]-2-ethoxy-N-(2-methylimidazo[1,2-a]pyrazin-6-yl)benzamide] | 0.409 | 1.83 | 0.102 |
